Reference: ChEMBL document CHEMBL4680234, “Antibacterial AZT derivative regulates metastasis of breast cancer cells” (Eur J Med Chem, 2020)
Values after ≈ are worked out from the molar mass of the structure shown.

Legend:
Escherichia coli [1] = assay: Antibacterial activity against Escherichia coli KCTC 1682 assessed as reduction in bacterial growth incubated for 18 to 22 hrs by spectrophotometry based broth microdilution method; assay type: functional; conditions: time 18-22 hrs, read-out: MIC100
Pseudomonas aeruginosa [2] = assay: Antibacterial activity against Pseudomonas aeruginosa KCTC 1637 assessed as reduction in bacterial growth incubated for 18 to 22 hrs by spectrophotometry based broth microdilution method; assay type: functional; conditions: time 18-22 hrs, read-out: MIC100
Bacillus subtilis [3] = assay: Antibacterial activity against Bacillus subtilis KCTC 3068 assessed as reduction in bacterial growth incubated for 18 to 22 hrs by spectrophotometry based broth microdilution method; assay type: functional; conditions: time 18-22 hrs, read-out: MIC100
Staphylococcus aureus [4] = assay: Antibacterial activity against Staphylococcus aureus KCTC 1621 assessed as reduction in bacterial growth incubated for 18 to 22 hrs by spectrophotometry based broth microdilution method; assay type: functional; conditions: time 18-22 hrs, read-out: MIC100
Escherichia coli [5] = assay: Potency index, ratio of melittin MIC to test compound MIC for antibacterial activity against Escherichia coli KCTC 1682; assay type: functional
Pseudomonas aeruginosa [6] = assay: Potency index, ratio of melittin MIC to test compound MIC for antibacterial activity against Pseudomonas aeruginosa KCTC 1637; assay type: functional
Erythrocyte [7] = assay: Hemolytic activity in sheep RBC at 16 ug/ml measured after 2 hrs by ELISA; assay type: cell-based, Ovis aries; conditions: dose 16 µg/ml
Erythrocyte [8] = assay: Hemolytic activity in sheep RBC measured after 2 hrs by ELISA; assay type: ADME, cell-based, Ovis aries
[9] = Therapeutic index, ratio of MHC for sheep RBC to geometric mean of peptide MIC for Escherichia coli KCTC 1682; assay type: toxicity; conditions: sheep red blood cells (erythrocytes), read-out: TI
[10] = Therapeutic index, ratio of MHC for sheep RBC to geometric mean of peptide MIC for Pseudomonas aeruginosa KCTC 1637; assay type: toxicity; conditions: sheep red blood cells (erythrocytes), read-out: TI
[11] = Therapeutic index, ratio of MHC for sheep RBC to geometric mean of peptide MIC for Bacillus subtilis KCTC 3068; assay type: toxicity; conditions: sheep red blood cells (erythrocytes), read-out: TI
[12] = Therapeutic index, ratio of MHC for sheep RBC to geometric mean of peptide MIC for Staphylococcus aureus KCTC 1621; assay type: toxicity; conditions: sheep red blood cells (erythrocytes), read-out: TI
Staphylococcus aureus [13] = assay: Antimicrobial activity against methicillin-resistant Staphylococcus aureus CCARM 3089 assessed as reduction in microbial growth incubated for 18 to 24 hrs by broth microdilution method; assay type: functional; conditions: time 18-24 hrs
Staphylococcus aureus [14] = assay: Antimicrobial activity against methicillin-resistant Staphylococcus aureus CCARM 3090 assessed as reduction in microbial growth incubated for 18 to 24 hrs by broth microdilution method; assay type: functional; conditions: time 18-24 hrs
Staphylococcus aureus [15] = assay: Antimicrobial activity against methicillin-resistant Staphylococcus aureus CCARM 3095 assessed as reduction in microbial growth incubated for 18 to 24 hrs by broth microdilution method; assay type: functional; conditions: time 18-24 hrs
Bacillus subtilis [16] = assay: Potency index, ratio of melittin MIC to test compound MIC for antibacterial activity against Bacillus subtilis KCTC 3068; assay type: functional
Staphylococcus aureus [17] = assay: Potency index, ratio of melittin MIC to test compound MIC for antibacterial activity against Staphylococcus aureus KCTC 1621; assay type: functional

Compound | MIC (Escherichia coli [1]) [µg/mL] | MIC (Pseudomonas aeruginosa [2]) [µg/mL] | MIC (Bacillus subtilis [3]) [µg/mL] | MIC (Staphylococcus aureus [4]) [µg/mL] | further results
Cc1cn([C@H]2C[C@H](NC(=O)CC34CC5CC(CC(C5)C3)C4)[C@@H](CNC(=O)CC34CC5CC(CC(C5)C3)C4)O2)c(=O)nc1NCCNC(=N)N | 64 (≈ 94.5 µM) | > 64 | 4 (≈ 5.91 µM) | 4 (≈ 5.91 µM) | Ratio (Escherichia coli [5]): 2; Ratio (Pseudomonas aeruginosa [6]): 2; Activity (Erythrocyte [7]): Non-Toxic; MHC (Erythrocyte [8]): 43 µg/mL; selectivity ratio [9]: 0.9; selectivity ratio [10]: 0.9; selectivity ratio [11]: 0.9; selectivity ratio [12]: 0.9
Cc1cn([C@H]2C[C@H](NC(=O)C3CCCCC3)[C@@H](CNC(=O)C3CCCCC3)O2)c(=O)nc1N(CCCN)CCCN | > 64 | 64 (≈ 112 µM) | 64 (≈ 112 µM) | > 64 | 
Cc1onc(-c2ccccc2)c1C(=O)N[C@@H]1C(=O)N2[C@@H]1SC(C)(C)[C@@H]2C(=O)O [OXACILLIN] |  |  |  |  | MIC (Staphylococcus aureus [13]): 256 µg/mL; MIC (Staphylococcus aureus [14]): 512 µg/mL; MIC (Staphylococcus aureus [15]): 256 µg/mL
CCCCCC(=O)NC[C@H]1O[C@@H](n2cc(C)c(N(CCCN)CCCN)nc2=O)C[C@@H]1NC(=O)CCCCC | > 64 | 8 (≈ 14.6 µM) | 64 (≈ 116 µM) | > 64 | 
Cc1cn([C@H]2C[C@H](NC(=O)C3CCCCC3)[C@@H](CNC(=O)C3CCCCC3)O2)c(=O)nc1NCCNC(=N)N | > 64 | > 64 | > 64 | > 64 | 
Cc1cn([C@H]2C[C@H](NC(=O)Cc3cccc4ccccc34)[C@@H](CNC(=O)Cc3cccc4ccccc34)O2)c(=O)nc1N(CCCN)CCCN | 64 (≈ 92.8 µM) | 8 (≈ 11.6 µM) | 4 (≈ 5.8 µM) | 16 (≈ 23.2 µM) | Ratio (Escherichia coli [5]): 4; Ratio (Pseudomonas aeruginosa [6]): 2; Ratio (Bacillus subtilis [16]): 2; Ratio (Staphylococcus aureus [17]): 2
O=C(N[C@H](CO)[C@H](O)c1ccc([N+](=O)[O-])cc1)C(Cl)Cl [CHLORAMPHENICOL] |  |  |  |  | MIC (Staphylococcus aureus [13]): 512 µg/mL; MIC (Staphylococcus aureus [14]): 256 µg/mL; MIC (Staphylococcus aureus [15]): 512 µg/mL
Cc1cn([C@H]2C[C@H](NC(=O)Cc3cccc4ccccc34)[C@@H](CNC(=O)Cc3cccc4ccccc34)O2)c(=O)nc1N(CCCNC(=N)N)CCCNC(=N)N | 64 (≈ 82.7 µM) | 16 (≈ 20.7 µM) | 4 (≈ 5.17 µM) | 8 (≈ 10.3 µM) | Ratio (Bacillus subtilis [16]): 2
Cc1cn([C@H]2C[C@H](NC(=O)CCCc3ccccc3)[C@@H](CNC(=O)CCCc3ccccc3)O2)c(=O)nc1N(CCCNC(=N)N)CCCNC(=N)N | > 64 | 16 (≈ 21.9 µM) | 8 (≈ 11 µM) | 8 (≈ 11 µM) | 
